Here are results for 16 molecules from patent US8546588B2, “Substituted hydroxamic acids and uses thereof” (Millennium Pharmaceuticals, Inc., priority 2010, dated 2013).

This assay concerns the target T1, purified human HDAC6 (Homo sapiens, UniProt Q9UBN7).
T1 construct: purchased BPS Bioscience 5006
T1 sequence (Q9UBN7 1-1215): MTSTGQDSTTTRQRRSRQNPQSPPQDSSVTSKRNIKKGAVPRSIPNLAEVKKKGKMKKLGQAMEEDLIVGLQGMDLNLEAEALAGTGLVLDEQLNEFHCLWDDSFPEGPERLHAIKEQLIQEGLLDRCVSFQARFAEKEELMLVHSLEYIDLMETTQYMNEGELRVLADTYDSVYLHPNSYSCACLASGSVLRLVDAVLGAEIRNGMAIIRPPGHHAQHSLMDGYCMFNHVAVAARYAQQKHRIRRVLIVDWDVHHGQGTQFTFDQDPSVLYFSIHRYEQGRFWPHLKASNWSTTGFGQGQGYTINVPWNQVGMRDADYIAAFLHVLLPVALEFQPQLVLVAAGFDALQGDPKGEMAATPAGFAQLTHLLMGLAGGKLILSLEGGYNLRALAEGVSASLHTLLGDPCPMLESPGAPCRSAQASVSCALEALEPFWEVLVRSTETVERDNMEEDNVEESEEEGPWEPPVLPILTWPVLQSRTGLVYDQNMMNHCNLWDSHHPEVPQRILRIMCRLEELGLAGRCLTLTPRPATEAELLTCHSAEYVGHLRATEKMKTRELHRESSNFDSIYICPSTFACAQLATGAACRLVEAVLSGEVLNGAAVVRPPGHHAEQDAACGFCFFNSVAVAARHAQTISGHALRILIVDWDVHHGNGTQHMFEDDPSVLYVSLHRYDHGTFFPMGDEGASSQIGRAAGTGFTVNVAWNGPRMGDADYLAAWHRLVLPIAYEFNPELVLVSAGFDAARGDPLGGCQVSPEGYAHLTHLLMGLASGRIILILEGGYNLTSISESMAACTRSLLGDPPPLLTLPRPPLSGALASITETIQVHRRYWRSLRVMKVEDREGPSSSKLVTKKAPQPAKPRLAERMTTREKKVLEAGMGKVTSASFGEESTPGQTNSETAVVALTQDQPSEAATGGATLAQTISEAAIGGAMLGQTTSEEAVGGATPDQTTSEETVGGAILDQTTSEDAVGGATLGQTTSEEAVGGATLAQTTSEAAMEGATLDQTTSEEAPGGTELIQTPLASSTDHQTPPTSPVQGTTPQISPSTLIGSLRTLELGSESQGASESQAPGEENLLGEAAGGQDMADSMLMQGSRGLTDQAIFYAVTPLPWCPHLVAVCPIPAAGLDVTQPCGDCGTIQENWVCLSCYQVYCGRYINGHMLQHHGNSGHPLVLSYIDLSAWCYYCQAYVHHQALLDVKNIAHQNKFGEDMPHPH
The assay can be described thus: HDAC6 Enzyme Assay. It is filed as biochemical. To be noted: substrate Ac-Arg-Gly-Lys(Ac)-AMC peptide, 1 hour at 30° C. As to the method: To measure the inhibition of HDAC6 activity, purified human HDAC6 (BPS Bioscience; Cat. No. 5006) is incubated with substrate Ac-Arg-Gly-Lys(Ac)-AMC peptide (Bachem Biosciences; Cat. No. I-1925) for 1 hour at 30° C. in the presence of test compounds or vehicle DMSO control. The reaction is stopped with the HDAC inhibitor trichostatin A (Sigma; Cat. No. T8552) and the amount of Arg-Gly-Lys-AMC generated is quantitated by digestion with trypsin (Sigma; Cat. No. T1426) and subsequent measurement of the amount of AMC released using a fluorescent plate reader (Pherastar; BMG Technologies) set at Ex 340 nm and Em 460 nm. Concentration response curves are generated by calculating the fluorescence increase in test compound-treated samples relative to DMSO-treated controls, and enzyme inhibition (IC50) values are determined from those curves.

Turning to `CC(NC(=O)NC1CCCC1)c1ccc(C(=O)NO)s1` (stereo not shown) [Compound I-1, 5-(1-(3-cyclopentylureido)ethyl)-N-hydroxythiophene-2-carboxamide], the IC50 (usually the midpoint of a concentration-inhibition curve) was below 100 nM.
Take `CC(NC(=O)Nc1ccc(F)cc1)c1ccc(C(=O)NO)s1` (stereo not shown) [Compound I-2, 5-[1-({[(4-fluorophenyl)amino]carbonyl}amino)ethyl]-N-hydroxythiophene-2-carboxamide]: the IC50 is below 100 nM.
`CC(NC(=O)Nc1cccc(C(F)(F)F)c1)c1ccc(C(=O)NO)s1` (stereo not shown) [Compound I-3, N-hydroxy-5-{1-[({[3-(trifluoromethyl)phenyl]amino}carbonyl)amino]ethyl}thiophene-2-carboxamide] yielded a half-maximal inhibitory concentration (IC50) below 100 nM.
Turning to `CC(NC(=O)Nc1cc(Cl)cc(Cl)c1)c1ccc(C(=O)NO)s1` (stereo not shown) [Compound I-4, 5-[1-({[(3,5-dichlorophenyl)amino]carbonyl}amino)ethyl]-N-hydroxythiophene-2-carboxamide], the IC50 lay within 100 to 500 nM.
In turn, `C[C@@H](NC(=O)c1cc2ccccc2n1C)c1ccc(C(=O)NO)s1` [Compound I-5, N-((1R)-1-{5-[(hydroxyamino)carbonyl]-2-thienyl}ethyl)-1-methyl-1H-indole-2-carboxamide] displayed an IC50 below 100 nM.
For `C[C@@H](NC(=O)C(C)(C)C)c1ccc(C(=O)NO)s1` [Compound I-6, 5-{(1R)-1-[(2,2-dimethylpropanoyl)amino]ethyl}-N-hydroxythiophene-2-carboxamide] the value was above 500 nM; for `CC(NC(=O)Nc1cc(C(F)(F)F)ccc1F)c1ccc(C(=O)NO)s1` (stereo not shown) [Compound I-7, 5-{1-[({[2-fluoro-5-(trifluoromethyl)phenyl]amino}carbonyl)amino]ethyl}-N-hydroxythiophene-2-carboxamide], below 100 nM.
The molecule `C[C@@H](NC(=O)NC(C)(C)C)c1ccc(C(=O)NO)s1` [Compound I-8, 5-((1R)-1-{[(tert-butylamino)carbonyl]amino}ethyl)-N-hydroxythiophene-2-carboxamide] showed an IC50 of 100 to 500 nM.
In turn, `COc1ccc(C(=O)N[C@H](C)c2ccc(C(=O)NO)s2)cc1` [Compound I-9, N-hydroxy-5-{(1R)-1-[(4-methoxybenzoyl)amino]ethyl}thiophene-2-carboxamide] showed an IC50 below 100 nM.
For `CC(NC(=O)Nc1ccc(Cl)c(C(F)(F)F)c1)c1ccc(C(=O)NO)s1` (stereo not shown) [Compound I-10, 5-{1-[({[4-chloro-3-(trifluoromethyl)phenyl]amino}carbonyl)amino]ethyl}-N-hydroxythiophene-2-carboxamide], the IC50 was below 100 nM.
In the case of `C[C@@H](NC(=O)C12CC3CC(CC(C3)C1)C2)c1ccc(C(=O)NO)s1` [Compound I-11, 5-{(1R)-1-[(1-adamantylcarbonyl)amino]ethyl}-N-hydroxythiophene-2-carboxamide] it was above 500 nM; in that of `CC(NC(=O)Nc1ccccc1)c1ccc(C(=O)NO)s1` (stereo not shown) [Compound I-12, 5-{1-[(anilinocarbonyl)amino]ethyl}-N-hydroxythiophene-2-carboxamide], below 100 nM; in that of `Cc1ccc(NC(=O)NC(C)c2ccc(C(=O)NO)s2)c(C)c1` (stereo not shown) [Compound I-13, 5-[1-({[(2,4-dimethylphenyl)amino]carbonyl}amino)ethyl]-N-hydroxythiophene-2-carboxamide], below 100 nM.
With `CC(NC(=O)Nc1ccc(Oc2ccccc2)cc1)c1ccc(C(=O)NO)s1` (stereo not shown) [Compound I-14, N-hydroxy-5-[1-({[(4-phenoxyphenyl)amino]carbonyl}amino)ethyl]thiophene-2-carboxamide], the IC50 is below 100 nM.
In the case of `Cc1c(C(=O)N[C@H](C)c2ccc(C(=O)NO)s2)oc2ccccc12` [Compound I-15, N-((1R)-1-{5-[(hydroxyamino)carbonyl]-2-thienyl}ethyl)-3-methyl-1-benzofuran-2-carboxamide] it was below 100 nM.
Regarding `C[C@@H](NC(=O)c1cc2ccccc2s1)c1ccc(C(=O)NO)s1` [Compound I-16, N-((1R)-1-{5-[(hydroxyamino)carbonyl]-2-thienyl}ethyl)-1-benzothiophene-2-carboxamide], the IC50 is below 100 nM.
